Holding throughout (assay): LYPLA2 and LYPLA1 inhibition in proteome, late-stage follow-up, selectivity assay for LYPLA2 selective inhibitor project, cell lysate, gel-based ABPP, FP-Rh fluorescence, mouse brain membrane proteome (AID 652030)
Test [1] deals with Acyl-protein thioesterase 1 (Mus musculus) (UniProt P97823). The following applies: emLYPLA1, at 10 µM, stronger effect = higher value.
The target of test [2] is Acyl-protein thioesterase 2 (Homo sapiens) (UniProt O95372). The following applies: rhLYPLA2, at 10 µM, stronger effect = higher value.
Sequence of Acyl-protein thioesterase 2 (Homo sapiens) (O95372 whole entry, looked up): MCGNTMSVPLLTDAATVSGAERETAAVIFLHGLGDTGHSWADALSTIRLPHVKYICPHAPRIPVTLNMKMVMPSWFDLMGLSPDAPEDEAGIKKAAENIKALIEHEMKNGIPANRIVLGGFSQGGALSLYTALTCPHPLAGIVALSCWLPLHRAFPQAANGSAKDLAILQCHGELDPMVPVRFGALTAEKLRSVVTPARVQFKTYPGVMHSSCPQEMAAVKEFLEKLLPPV
Test [3] addresses Acyl-protein thioesterase 2 (Mus musculus) (UniProt Q9WTL7). The following applies: emLYPLA2, at 10 µM, stronger effect = higher value.

SMILES strings stand for the structures. Active and inactive are the calls of the source.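 Rule for the calls: active = inhibition of 30% or more against both LYPLA2 panels while inhibition against LYPLA1 stays below 30%; inactive = under 30% on either LYPLA2 panel, or 30%+ on LYPLA1.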

As a reminder, the inhibition is the share of the control response that was lost under treatment. As for `Cc1nc(-c2ccc(S(=O)(=O)N3CCCN(CCc4ccccc4)CC3)s2)cs1`, the inhibition in test [1] is 7% (inactive); in test [2], 8% (inactive); in test [3], 0% (inactive).
Regarding `COc1ccc(OC)c(-c2cc(C(=O)Nc3c(C)nn(Cc4ccccc4)c3C)no2)c1`, the inhibition in test [1] is 15% (inactive); in test [2] it was 3% (inactive); in test [3], 0% (inactive).
The matching figures for `CC(=O)c1ccc(N2CCN(C(=O)C3CCN(S(=O)(=O)c4ccc5c(c4)CC(C)N5C(=O)C4CC4)CC3)CC2)cc1` (stereo unspecified): 18% (inactive), 10% (inactive) and 19% (inactive).
The matching figures for `Cc1ccc(NC(=O)Cn2c([N+](=O)[O-])cnc2C)cc1Cl`: 0% (inactive), 8% (inactive) and 8% (inactive).
The matching figures for `O=C(Nc1ccc(N2CCN(C(=O)c3ccco3)CC2)c(Cl)c1)c1c(F)c(F)c(F)c(F)c1F`: 18% (inactive), 5% (inactive) and 0% (inactive).
As to `CC(=O)N1c2ccc(S(=O)(=O)N3CCC(C(=O)N4CCN(c5ccc(Cl)cc5)CC4)CC3)cc2CC1C` (stereo unspecified), the inhibition in test [1] was 3% (inactive); in test [2], 32%; in test [3] it was 26% (inactive).
The matching figures for `C/C(C=NNC(=O)Cn1nnc(N)n1)=C\c1ccc(C(C)C)cc1`: 0% (inactive), 2% (inactive) and 0% (inactive).
The matching figures for `COc1ccc(-c2noc(CCC(=O)N3CCN(c4cccc(C(F)(F)F)c4)CC3)n2)cc1`: 1% (inactive), 2% (inactive) and 14% (inactive).
The matching figures for `Cc1cccc(N2CCN(C(=O)Cc3ccc(-n4c(=O)[nH]c5ccsc5c4=O)cc3)CC2)c1C`: 14% (inactive), 4% (inactive) and 0% (inactive).
With `COc1ccc(N2CCN(C(=O)c3ccc(C(C)(C)C)cc3)CC2)cc1`, the inhibition in test [1] was 16% (inactive); in test [2] it was 57%; in test [3] it was 47%.
The matching figures for `COc1ccc(OC)c(-c2cc(C(=O)Nc3c(C)nn(Cc4ccccc4C)c3C)no2)c1`: 6% (inactive), 8% (inactive) and 0% (inactive).
The matching figures for `COc1cc(C=NNC(=O)C(NC(=O)c2ccccc2)c2n[nH]c(=O)c3ccccc23)ccc1OCC(N)=O` (stereo unspecified): 14% (inactive), 9% (inactive) and 3% (inactive).
Turning to `O=C(Cn1cnc2ccccc2c1=O)c1ccc(OC(F)F)cc1`, the results for the inhibition in test [1], in test [2] and in test [3] were 5% (inactive), 7% (inactive) and 8% (inactive), respectively.
The matching figures for `COc1ccc(/C=C2\SC(=O)N(CC(=O)Nc3ccc(F)cc3)C2=O)cc1O`: 15% (inactive), 16% (inactive) and 24% (inactive).
With `CCN(CC)S(=O)(=O)c1ccc(N2CCOCC2)c(NC(=O)COc2ccc(C#N)cc2)c1`, the figures for the inhibition in test [1], in test [2] and in test [3] were 12% (inactive), 3% (inactive) and 0% (inactive), respectively.
The matching figures for `Cc1ccc(N/C=C(\C#N)c2ccc(OCCCF)cc2)cc1`: 17% (inactive), 5% (inactive) and 13% (inactive).
The matching figures for `Cc1cccc(NC(=O)CN2C(=O)S/C(=C\c3cc(C)n(C)c3C)C2=O)c1`: 9% (inactive), 51% and 40%.

The record behind these values is PubChem BioAssay AID652030 (The Scripps Research Institute Molecular Screening Center, 2013).
